Several values for one entry are separate records, joined by “and”; a condition that tells them apart may be missing. Identical values can stand only once. Activity calls are given as the source filed them.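 How the source made its calls: active means EC50 of 10 µM or lower; inactive means the rest.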

This assay has as its system H9c2 cardiomyocytes, 2-deoxyglucose injury, ATP luminescence, 2 h. In words: protection of cardiomyocytes from 2-deoxyglucose injury, SAR follow-up, H9c2 cells, ATP luminescence, set 2 (AID 624454).
As to `COc1cccc(-c2cc(C(=O)Nc3cccc(C(C)=O)c3)c3ccccc3n2)c1`, the EC50 (protection from 2-deoxyglucose ATP loss, increase) is 37.3 µM (inactive).
Next, `COc1cc(-c2cc(C(=O)Nc3ccccc3)c3ccccc3n2)cc(OC)c1OC`: > 79 µM (inactive); `COc1cccc(CNC(=O)c2cc(-c3cc(OC)c(OC)c(OC)c3)nc3ccccc23)c1`: 27.4 µM (inactive); `COc1ccc(N2C(=O)c3ccccc3N3C(=O)c4c(ccc(OC)c4OC)C23)cc1` (configuration not stated): 58.4 µM (inactive).
Regarding `COc1cc(-c2cc(C(=O)Nc3ccc(C(C)=O)cc3)c3ccccc3n2)cc(OC)c1OC`, the EC50 (protection from 2-deoxyglucose ATP loss, increase) was > 79 µM (inactive).
Turning to `COc1ccc2c(c1OC)C(=O)N1c3ccccc3C(=O)N(c3cccc(Cl)c3)C21` (configuration not stated), the EC50 (protection from 2-deoxyglucose ATP loss, increase) is 45 µM (inactive).
With `COc1ccc2c(c1OC)C(=O)N1c3ccccc3C(=O)N(c3ccc(C)cc3)C21` (configuration not stated), the EC50 (protection from 2-deoxyglucose ATP loss, increase) is 29.1 µM (inactive).
Next, `COc1cc(-c2cc(C(=O)Nc3cccc(F)c3)c3ccccc3n2)cc(OC)c1OC`: > 79 µM (inactive).
With `COc1ccc(-c2cc(C(=O)Nc3cccc(C(C)=O)c3)c3ccccc3n2)cc1`, the EC50 (protection from 2-deoxyglucose ATP loss, increase) is > 79 µM (inactive).
On to `CC(=O)c1cccc(NC(=O)c2cc(-c3ccccc3)nc3ccccc23)c1`, for which the EC50 (protection from 2-deoxyglucose ATP loss, increase) is 33.5 µM (inactive).
As for `COc1cc(-c2cc(C(=O)Nc3cccc(C(F)(F)F)c3)c3ccccc3n2)cc(OC)c1OC`, the figure is > 79 µM (inactive).
Regarding `CCN(CC(=O)Nc1ccc(OC)cc1)C(=O)c1cc(-c2cc(OC)c(OC)c(OC)c2)nc2ccccc12`, the EC50 (protection from 2-deoxyglucose ATP loss, increase) was 29.8 µM (inactive).
For `O=C1c2ccccc2N2C(=O)c3ccccc3C2N1c1cccc(Br)c1` (configuration not stated), the EC50 (protection from 2-deoxyglucose ATP loss, increase) was > 79 µM (inactive).
For `COc1cc(-c2cc(C(=O)Nc3cccc(Cl)c3)c3ccccc3n2)cc(OC)c1OC`, the EC50 (protection from 2-deoxyglucose ATP loss, increase) is > 79 µM (inactive).
Next, `COc1cc(-c2cc(C(=O)Nc3cccc(C(C)=O)c3)c3cc(Cl)ccc3n2)cc(OC)c1OC`: > 79 µM (inactive).
On to `O=C1c2ccccc2N2C(=O)c3ccccc3C2N1c1ccccc1` (configuration not stated), for which the EC50 (protection from 2-deoxyglucose ATP loss, increase) was > 79 µM (inactive).
`COc1ccc2c(c1OC)C(=O)N1c3ccccc3C(=O)N(c3ccccc3)C21` (configuration not stated): the EC50 (protection from 2-deoxyglucose ATP loss, increase) was 31.9 µM (inactive).
Regarding `CCN(CC(=O)Nc1ccccc1)C(=O)c1cc(-c2cccs2)nn1-c1ccccc1`, the EC50 (protection from 2-deoxyglucose ATP loss, increase) is > 79 µM (inactive).
Regarding `CCOC(=O)c1cccc(NC(=O)c2cc(-c3cc(OC)c(OC)c(OC)c3)nc3ccccc23)c1`, the EC50 (protection from 2-deoxyglucose ATP loss, increase) is > 79 µM (inactive).
On to `COc1ccc2c(c1OC)C(=O)N1c3ccccc3C(=O)N(Cc3ccccc3Cl)C21` (configuration not stated), for which the EC50 (protection from 2-deoxyglucose ATP loss, increase) was 12.8 µM (inactive).
`COc1cccc(CNC(=O)c2cc(-c3ccc(OC)c(OC)c3)nc3ccccc23)c1`: the EC50 (protection from 2-deoxyglucose ATP loss, increase) is 18.5 µM (inactive).
On to `COc1cc(-c2cc(C(=O)Nc3cccc(C)c3)c3ccccc3n2)cc(OC)c1OC`, for which the EC50 (protection from 2-deoxyglucose ATP loss, increase) was > 79 µM (inactive).
Next, `COc1ccc2c(c1OC)C(=O)N1c3ccccc3C(=O)N(c3ccc(Br)cc3)C21` (configuration not stated): 11.3 µM (inactive); `COc1cccc(N2C(=O)c3ccccc3N3C(=O)c4c(ccc(OC)c4OC)C23)c1` (configuration not stated): 78 µM (inactive); `COc1ccc2c(c1OC)C(=O)N1c3ccccc3C(=O)N(c3cccc(Br)c3)C21` (configuration not stated): 28.4 µM (inactive) and > 79 µM (inactive).
As to `COc1ccc2c(c1OC)C(=O)N1c3ccccc3C(=O)N(c3cccc(F)c3)C21` (configuration not stated), the EC50 (protection from 2-deoxyglucose ATP loss, increase) was 41.1 µM (inactive).
As to `COc1ccc2c(c1OC)C(=O)N1c3ccccc3C(=O)N(c3cccc(C)c3)C21` (configuration not stated), the EC50 (protection from 2-deoxyglucose ATP loss, increase) was 53.3 µM (inactive).
With `COc1cccc(NC(=O)c2cc(-c3cc(OC)c(OC)c(OC)c3)nc3ccccc23)c1`, the EC50 (protection from 2-deoxyglucose ATP loss, increase) was > 79 µM (inactive).
Next, `CCN(CC(=O)Nc1ccc(F)cc1)C(=O)c1cc(-c2cccs2)nn1-c1ccccc1`: 36.1 µM (inactive).
As for `COc1cc(-c2cc(C(=O)Nc3cccc(C(C)=O)c3)c3ccccc3n2)cc(OC)c1OC`, the EC50 (protection from 2-deoxyglucose ATP loss, increase) is 13.7 µM (inactive) and 14.8 µM (inactive).
As for `CCN(CC(=O)Nc1ccc(OC)cc1)C(=O)c1cc(-c2cccs2)nn1-c1ccccc1`, the figure is 16.1 µM (inactive) and 20.5 µM (inactive); as for `COc1ccc2c(c1OC)C(=O)N1c3ccccc3C(=O)N(Cc3cccc(Cl)c3)C21` (configuration not stated), 37.9 µM (inactive).
As for `COc1cccc(N2C(=O)c3ccccc3N3C(=O)c4ccccc4C23)c1` (configuration not stated), the EC50 (protection from 2-deoxyglucose ATP loss, increase) was > 79 µM (inactive).
As for `COc1ccc2c(c1OC)C(=O)N1c3ccccc3C(=O)N(c3cccc(C(F)(F)F)c3)C21` (configuration not stated), the EC50 (protection from 2-deoxyglucose ATP loss, increase) was > 79 µM (inactive).
On to `COc1ccc(NC(=O)c2cc(-c3cc(OC)c(OC)c(OC)c3)nc3ccccc23)cc1`, for which the EC50 (protection from 2-deoxyglucose ATP loss, increase) was > 79 µM (inactive).
Regarding `COc1ccc2c(c1OC)C(=O)N1c3ccccc3C(=O)N(c3ccc(C(C)(C)C)cc3)C21` (configuration not stated), the EC50 (protection from 2-deoxyglucose ATP loss, increase) was > 79 µM (inactive).
Take `COc1ccc(-c2cc(C(=O)Nc3cccc(C(C)=O)c3)c3ccccc3n2)cc1OC`: the EC50 (protection from 2-deoxyglucose ATP loss, increase) is 42.8 µM (inactive).

These data come from PubChem BioAssay AID624454 (Sanford-Burnham Center for Chemical Genomics, 2012).
